Assay results taken from patent US8440423B2, “Bioremediation of nanomaterials” (U.S. Department of Energy, priority 2007, dated 2013).

Assays:
[1] = test system: 22 collection strains including E coli, B. subtilis, etc.; conditions: ~43 mg/L; cited from earlier work
Solubility in water = assay type: physicochemical
[2] = test system: Shewanella oneidensis MR-1; experiment: Growth of S. oneidensis MR-1 in minimal [3-13C]L-lactate medium with nanoparticles added (OD600); assay type: cell-based
Method: (§1) Tracer Experiments. Shewanella oneidensis MR-1 and Escherichia coli W3110 were cultured in minimal medium (described in Tang, Y. J. J.; Laidlaw, D.; Gani, K.; Keasling, J. D. Biotechnology and Bioengineering 2006, 95, (1), 176-184) and hereby incorporated by reference). The medium was supplied with 30 mM (98% [3-^13C]L-lactate) (Cambridge Isotope, USA) as the sole carbon source to support cell growth. The inoculum was prepared in LB medium, which was grown overnight. This culture was inoculated into the minimal medium with a 0.09% inoculation volume. Both S. oneidensis and E. coli were cultured in shake flasks at 30° C. (at 200 rpm in dark). The fullerene compounds (C60, C60—OH, C60—COOH and C60-NH2) were added to the medium to different final concentrations (from 1 mg/L to 80 mg/L) before the exponential phase (OD600=0.09˜0.10). The culture's optical density at a wavelength of 600 nm (OD600) was measured in a spectrophotometer (DU®640, Beckman Instruments, Palo Alto, Calif.) every 2-3 hours. The carbon source (lactate) concentrations at each time point were determined using an enzyme test kit (r-Biopharm Inc., Darmstadt, Germany).
We used minimal medium containing [3-^13C]L-lactate to grow both organisms and test the impact of fullerenes (concentrations range from 0˜80 mg/l) on their growth. Since C60 is not soluble in water and cannot be uniformly suspended in the culture solution, we only applied concentrations less than 20 mg/L in the studies of non-derivatized C60.

E. coli, and B. subtilis = conditions: up to 5 mg/L; cited from earlier work
Escherichia coli W3110 = experiment: Growth of E. coli W3110 in minimal [3-13C]L-lactate medium with nanoparticles added (OD600); assay type: cell-based
Method: as §1
We used minimal medium containing [3-^13C]L-lactate to grow both organisms and test the impact of fullerenes (concentrations range from 0˜80 mg/l) on their growth. […]

mouse skin = conditions: repeating subchronic topical dose on mouse skin for up to 24 weeks; cited from earlier work

c12c3c4c5c1c1c6c7c2c2c8c3c3c9c4c4c%10c5c5c1c1c6c6c%11c7c2c2c7c8c3c3c8c9c4c4c9c%10c5c5c1c1c6c6c%11c2c2c7c3c3c8c4c4c9c5c1c1c6c2c3c41 [C60, C60 fullerene]
Conclusions: effect on 22 collection strains [1]: No effect | solubility in water (Solubility in water): not soluble | effect on S. oneidensis MR-1 (growth), summary statement [2]: mild negative effects | S. oneidensis growth course after addition of nanoparticles ([2]; 20 mg/L and 40 mg/L, FIG. 4b): slowed after addition of nanoparticles, then resumed their normal growth rate | S. oneidensis growth inhibition ([2]; concentrations up to 80 mg/L (C60 less than 20 mg/L), FIG. 3b): did not significantly inhibit | Conclusions: effect on growth of prokaryotic microorganisms (E. coli, and B. subtilis): inhibitory to | E. coli growth course after addition of nanoparticles (Escherichia coli W3110; 20 mg/L and 40 mg/L, FIG. 4a): slowed after addition of nanoparticles, then resumed their normal growth rate | E. coli growth inhibition (Escherichia coli W3110; concentrations up to 80 mg/L (C60 less than 20 mg/L), FIG. 3a): did not significantly inhibit | carcinogenicity (mouse skin): non-carcinogenic
